Measurements from publication PMC3949714 (PLoS ONE, 2014).
Where two headings read alike, the source gives them in different places. Where no end group is shown, it is not given here.

Key:
[1] = target: T1, mu-opioid receptors (MOR) (Mus musculus, UniProt P42866); assay: cell-based; assay type: cell-based, murine
T1 construct: FLAG; expressed in transfected cells

[2] = Biotransformation in homogenised inflamed tissue at pH 5.5 (LC/MS, mean residence time); details: for MRT: 120 min, AUMC/AUC of LC/MS peak intensity
[3] = target: T2, delta-opioid receptors (DOR); assay type: cell-based; details: read-out: IC50 for the inhibition of forskolin induced cAMP in HEK-DOP cells
T2 construct: expressed in transfected cells

[4] = RP-HPLC retention time (read by the paper as polarity); assay type: physicochemical; details: water/acetonitrile gradient with 0.1% formic acid, MS TIC detection
Experimental: An Agilent binary HPLC composing of an Agilent 1100 LC pump, an Agilent 1100 well plate auto-sampler (Agilent Technologies, Santa Clara, CA, USA) and a Jupiter 5 μ (C4, 300 A, 150×2.00 mm, 5 μ) RP HPLC column (Phenomenex, Torrance, CA, USA) were used for separation. The mobile phase flow rate was 200 µl/min and the volume of injection was 20 µL. The separations were performed using a binary solvent gradient; water (Milli-Q; Millipore Corporation, Bedford, MA) which contained 0.1% v/v formic acid was used as the solvent A and acetonitrile (Merck KGaA, Darmstadt, Germany) which contained 0.1% v/v formic acid (Nuplex industries Pty Ltd. (NSW, Australia) was used as the solvent B. The chromatographic separation was achieved using the gradient shown in Table 1.
An API 3000 tandem mass spectrometer equipped with a turbo ion spray was used as the detector. Detection was performed in total ion current (TIC) mode (MS1/Q1), in positive mode, within the range 200–3000 amu. The data were acquired and processed by Analyst 1.5 software (Applied Biosystems, Foster city, CA, USA). Mass spectra were obtained using: declustering potential (DF) of 16 V, focusing potential (FP) of 120 V, Entrance potential (EP) of 10 V, and Ion spray voltage (IS) of 5000 V. Structure identity of fragments was performed using the respective mass/charge (m/z) values of each peptide metabolite. Direct flow injections were carried out using Model 11 plus Harvard Syringe pump (Harvard Apparatus Inc, Holliston, MA, USA).

[5] = incubation of BE 1-11 (115 µM) in rat inflamed tissue homogenate, MES pH 5.5, 37°C
[6] = incubation of BE 1-13 (115 µM) in rat inflamed tissue homogenate, MES pH 5.5, 37°C
[7] = incubation of BE 1-17 (115 µM) in rat inflamed tissue homogenate, MES pH 5.5, 37°C
[8] = incubation of BE 1-31 (115 µM) in rat inflamed tissue homogenate, MES pH 5.5, 37°C
[9] = rat inflamed tissue homogenate, MES pH 5.5, 37°C, 115 µM peptide, LC/MS
[10] = incubation of BE 1-11, Jupiter C4 column
[11] = incubation of BE 1-13, Jupiter C4 column
[12] = incubation of BE 1-17, Jupiter C4 column
[13] = incubation of BE 1-31, Jupiter C4 300 A column, 200 µl/min
[14] = formed during incubation of BE 1–31, pH 5.5, 37°C

T1 sequence (P42866 whole entry): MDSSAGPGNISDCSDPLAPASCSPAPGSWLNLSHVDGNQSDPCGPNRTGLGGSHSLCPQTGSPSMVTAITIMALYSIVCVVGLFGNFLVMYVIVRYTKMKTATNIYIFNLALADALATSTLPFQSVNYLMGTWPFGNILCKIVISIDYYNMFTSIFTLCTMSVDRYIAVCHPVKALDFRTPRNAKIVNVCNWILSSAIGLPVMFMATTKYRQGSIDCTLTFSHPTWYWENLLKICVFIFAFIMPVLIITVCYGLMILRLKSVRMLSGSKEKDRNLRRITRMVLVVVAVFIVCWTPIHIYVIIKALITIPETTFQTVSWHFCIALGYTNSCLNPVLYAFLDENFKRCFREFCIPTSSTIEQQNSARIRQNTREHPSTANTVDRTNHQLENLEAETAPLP

For YGGFMTSEKSQ [BE 1–11], the “Effect of naloxone pre-treatment on cAMP inhibition through MOR” value (“Effect … on cAMP inhibition through MOR” below) [1] was “inhibited by naloxone”, the MRT [2, 5] was 11 and the MRT [2, 6] was 10.5. For the same compound, the MRT [2, 7] was 17.2, the MRT [2, 8] was 57.8 and the “Incubation period after which the peptide was undetectable” value [2, 9] was 30 min. For the same compound, the IC50 [3] was 18 nM, the Rt [4, 10] was 17.4 min and the Rt [4, 11] was 17.4 min. It also gave an RT [4, 12] of 17.58 min and an RT [4, 13] of 19.96 min.

With YGGFMTSEKSQTPLVTLFKN [BE 1–20] the “Effect … on cAMP inhibition through MOR” value [1] was “inhibited by naloxone”, the IC50 ([1]; read-out: IC50 for the inhibition of forskolin induced cAMP in HEK-MOP cells) was 5 nM and the MRT [2, 8] was 34.2. It also gave an IC50 [3] of 55 nM and an RT [4, 13] of 25.2 min.

Work on `C=CCN1C[C@H](C)N([C@H](c2ccc(C(=O)N(CC)CC)cc2)c2cccc(OC)c2)C[C@H]1C` [SNC 80, 4-[(R)-[(2S,5R)-4-allyl-2,5-dimethylpiperazin-1-yl](3-methoxyphenyl)methyl]-N,N-diethylbenzamide, reference compound] yielded an IC50 ([1]; Table 2 as titled, 20000 cells/well, FSK 100 µM, 0.3 nM to 1 µM in half log intervals, 30 min, Alphascreen, one-site fit, at least three independent experiments, read-out: IC50 for the inhibition of forskolin induced cAMP in HEK-MOP cells) of 8.1 nM.

Compound “BE 1-14: beta-endorphin N-terminal fragment, residues 1-14 (YGGFMTSEKSQTPL; Beta-endorphin; UniProt P01189 237-250, looked up, fragment)” has an MRT [2, 7] of 13.8 and an RT [4, 12] of 21.13 min.

In the case of “BE 2-11: des-tyrosine beta-endorphin fragment, residues 2-11 (GGFMTSEKSQ; Beta-endorphin; UniProt P01189 238-247, looked up, fragment)”, the MRT [2, 5] is reported as 15, the MRT [2, 6] is reported as 20.2 and the MRT [2, 7] is reported as 31.8. It also gave an MRT [2, 8] of 37, a Rt [4, 10] of 15.7 min and a Rt [4, 11] of 15.7 min. It also gave an RT [4, 12] of 15.52 min and an RT [4, 13] of 17.5 min.

For “YGGFMTSEKSQTPLVTLFKNAIIKNVHKKGQ [BE 1–31, Beta-endorphin]”, the “Effect … on cAMP inhibition through MOR” value [1] was “inhibited by naloxone”, the IC50 [1] was 24 nM and the MRT [2, 8] was 2.9. For the same compound, the “Peak intensity observed (remaining) at 15 min” value ([2]; rat inflamed paw tissue homogenate (1 g/10 ml MES buffer) pH 5.5, 37°C, 115 µM peptide, LC/MS) was 7.5%, the IC50 [3] was 57 nM and the RT [4, 13] was 25.8 min.

With YGGFMTSEKSQTPLVTL [BE 1–17] the “Effect … on cAMP inhibition through MOR” value [1] was “inhibited by naloxone”, the MRT [2, 7] was 5.6 and the MRT [2, 8] was 25. The “Incubation period after which the peptide was undetectable” value [2, 9] was 15 min, the IC50 [3] was 25 nM and the RT [4, 12] was 24.5 min. It also gave an RT ([4]; incubation of BE 1-17, Jupiter C4 column, listed as BE 1-17) of 24.3 min and an RT [4, 13] of 24.5 min.

“BE 10-31: beta-endorphin fragment, residues 10-31 (SQTPLVTLFKNAIIKNAYKKGE; Beta-endorphin; UniProt P01189 246-267, looked up, fragment)” showed an MRT [2, 8] of 29 and an RT [4, 13] of 24.9 min.

With “BE 6-16: beta-endorphin fragment, residues 6-16 (TSEKSQTPLVT; Beta-endorphin; UniProt P01189 242-252, looked up, fragment)” the MRT [2, 8] was 22.4, the RT [4, 12] was 16 min and the RT [4, 13] was 18.4 min.

In the case of “BE 2-17: des-tyrosine beta-endorphin fragment, residues 2-17 (GGFMTSEKSQTPLVTL; Beta-endorphin; UniProt P01189 238-253, looked up, fragment)”, the MRT [2, 7] is reported as 7.45 and the RT [4, 12] is reported as 24 min.

For YGGFMTSEK [BE 1–9], the “Agonist character at MOR (extent of cAMP inhibition)” value [1] was “partial agonist”, the MRT [2, 7] was 28 and the MRT [2, 8] was 11.4. For the same compound, the RT [4, 12] was 18.13 min and the RT [4, 13] was 20.2 min.

Work on “BE 20-24: beta-endorphin intermediate fragment, residues 20-24 (NAIIK; Beta-endorphin; UniProt P01189 256-260, looked up, fragment)” yielded an MRT [2, 8] of 98 and an RT [4, 13] of 16.1 min.

For “BE 2-16: des-tyrosine beta-endorphin fragment, residues 2-16 (GGFMTSEKSQTPLVT; Beta-endorphin; UniProt P01189 238-252, looked up, fragment)”, the MRT [2, 7] was 15.1 and the RT [4, 12] was 20.43 min.

With “BE 20-27: beta-endorphin intermediate fragment, residues 20-27 (NAIIKNAY; Beta-endorphin; UniProt P01189 256-263, looked up, fragment)” the MRT [2, 8] was 97.1 and the RT [4, 13] was 16.1 min.

“BE 1-15: beta-endorphin N-terminal fragment, residues 1-15 (YGGFMTSEKSQTPLV; Beta-endorphin; UniProt P01189 237-251, looked up, fragment)” gave an MRT [2, 7] of 8.3, an MRT [2, 8] of 12 and an RT [4, 12] of 22.33 min. It also gave an RT [4, 13] of 24.2 min.

Work on “BE 1-16: beta-endorphin N-terminal fragment, residues 1-16 (YGGFMTSEKSQTPLVT; Beta-endorphin; UniProt P01189 237-252, looked up, fragment)” yielded an MRT [2, 7] of 7.6, an MRT [2, 8] of 9.8 and an RT [4, 12] of 21.38 min. The RT [4, 13] was 23.2 min.

With YGGFMTSEKSQTP [BE 1–13] the “Effect … on cAMP inhibition through MOR” value [1] was “inhibited by naloxone”, the “Time present as metabolite within inflamed tissue homogenates” value [2, 14] was “over 1 hour” and the MRT [2, 6] was 8.3. The MRT [2, 7] was 21.7, the MRT [2, 8] was 44 and the “Time for which the peptide was detected in inflamed tissue homogenates” value [2, 9] was 30 min. The IC50 [3] was 59 nM, the Rt [4, 11] was 18.4 min and the Rt ([4]; incubation of BE 1-13, Jupiter C4 column, listed as BE 1-13) was 18.5 min. For the same compound, the RT [4, 12] was 18.6 min, the RT ([4]; incubation of BE 1-17, Jupiter C4 column, listed as BE 1-13) was 18.78 min and the RT [4, 13] was 20.9 min.

Compound “BE 19-31: beta-endorphin C-terminal fragment, residues 19-31 (KNAIIKNAYKKGE; Beta-endorphin; UniProt P01189 255-267, looked up, fragment)” has an MRT [2, 8] of 80 and an RT [4, 13] of 13.67 min.

With “BE 4-13: beta-endorphin fragment, residues 4-13 (FMTSEKSQTP; Beta-endorphin; UniProt P01189 240-249, looked up, fragment)” the MRT [2, 6] was 18, the Rt [4, 11] was 15.7 min and the RT [4, 12] was 15.67 min.

Work on “BE 2-13: des-tyrosine beta-endorphin fragment, residues 2-13 (GGFMTSEKSQTP; Beta-endorphin; UniProt P01189 238-249, looked up, fragment)” yielded an MRT [2, 6] of 16.4, an MRT [2, 7] of 25.5 and an MRT [2, 8] of 65. For the same compound, the Rt [4, 11] was 17.2 min, the RT [4, 12] was 17.08 min and the RT [4, 13] was 19.96 min.

For “BE 10-16: beta-endorphin intermediate fragment, residues 10-16 (SQTPLVT; Beta-endorphin; UniProt P01189 246-252, looked up, fragment)”, the “Time observed as metabolite in homogenised inflamed tissue” value [2, 14] was “over 60 minutes”, the MRT [2, 8] was 44.3 and the RT [4, 13] was 19 min.

“BE 20-29: beta-endorphin fragment, residues 20-29 (NAIIKNAYKK; Beta-endorphin; UniProt P01189 256-265, looked up, fragment)” gave an MRT [2, 8] of 8.4 and an RT [4, 13] of 14.3 min.
